Where two headings read alike, the source gives them in different places.
Assays:
[1] = target: T1, AChE (Electrophorus electricus) (Electrophorus electricus, UniProt O42275); assay: AChE inhibition, Ellman's method; type: biochemical
T1 construct: purchased Sigma-Aldrich (Steinheim, Germany)
Experimental: (§1) The assay was performed in two steps.
(§2) All enzymes were obtained from Sigma-Aldrich (Steinheim, Germany). Ellman’s reagent and the substrates were obtained from Fluka (Buchs, Switzerland). The chemicals used to prepare the buffer solution were purchased from Merck (Darmstadt, Germany).
(§3) The enzyme inhibitory activities of the synthesized compounds were investigated by applying Ellman’s method. Enzyme solutions were dissolved in gelatin solution (1%; 2.5 units/mL). […] Then, the reaction was initiated by the addition of Ellman’s reagent 5,5′-Dithiobis(2-nitrobenzoic acid) (DTNB; 20 µL/well, 10 mM) and the substrate (10 µL/well, 75 mM). […] The enzyme solution was processed as a control. All readings were adjusted with blank-reading. All assays were performed in four independent wells. […] Absorbance differences between the two readings were taken, and percentage inhibition rates were calculated according to the following formula: % Inhibition=[(A(C)−A(B))−(A(I)−A(B))]/(A(C)−A(B))×100.
(§4) • Blank (B): the well in which the inhibitor compound and substrate were not added; • Control (C): the well where the inhibitor compound was not added; • A(B): the difference in absorbance reading for the blank; • A(C): the difference in absorbance reading for the control; • A(I): the difference in absorbance reading for the inhibitor compounds.

AChE (Human) = target: T2, AChE (Human) (Homo sapiens, UniProt P22303); assay: AChE inhibition, Ellman's method; type: biochemical
T2 construct: purchased Sigma-Aldrich (Steinheim, Germany)
T2 sequence (P22303 32-614): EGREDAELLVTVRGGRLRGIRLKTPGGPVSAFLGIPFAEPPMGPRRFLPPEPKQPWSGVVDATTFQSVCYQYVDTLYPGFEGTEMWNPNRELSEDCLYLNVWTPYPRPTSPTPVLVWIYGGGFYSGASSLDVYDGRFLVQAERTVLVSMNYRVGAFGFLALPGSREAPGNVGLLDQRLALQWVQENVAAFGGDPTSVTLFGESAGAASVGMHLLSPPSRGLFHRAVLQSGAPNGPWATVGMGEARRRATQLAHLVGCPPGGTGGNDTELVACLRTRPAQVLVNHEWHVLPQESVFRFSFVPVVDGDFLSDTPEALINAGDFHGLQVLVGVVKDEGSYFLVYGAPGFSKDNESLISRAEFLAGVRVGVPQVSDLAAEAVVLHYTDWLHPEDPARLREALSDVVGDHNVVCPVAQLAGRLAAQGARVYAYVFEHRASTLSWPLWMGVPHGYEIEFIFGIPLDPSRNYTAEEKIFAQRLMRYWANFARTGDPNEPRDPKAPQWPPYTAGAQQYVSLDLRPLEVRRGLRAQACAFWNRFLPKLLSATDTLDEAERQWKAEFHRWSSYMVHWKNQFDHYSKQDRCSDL
Experimental: as §1, §2, §3, §4

BChE (Equine) = target: T3, BChE (Equine) (Equus caballus, UniProt P81908); assay: biochemical; type: biochemical
T3 construct: purchased Sigma-Aldrich (Steinheim, Germany)
T3 sequence (P81908 whole entry): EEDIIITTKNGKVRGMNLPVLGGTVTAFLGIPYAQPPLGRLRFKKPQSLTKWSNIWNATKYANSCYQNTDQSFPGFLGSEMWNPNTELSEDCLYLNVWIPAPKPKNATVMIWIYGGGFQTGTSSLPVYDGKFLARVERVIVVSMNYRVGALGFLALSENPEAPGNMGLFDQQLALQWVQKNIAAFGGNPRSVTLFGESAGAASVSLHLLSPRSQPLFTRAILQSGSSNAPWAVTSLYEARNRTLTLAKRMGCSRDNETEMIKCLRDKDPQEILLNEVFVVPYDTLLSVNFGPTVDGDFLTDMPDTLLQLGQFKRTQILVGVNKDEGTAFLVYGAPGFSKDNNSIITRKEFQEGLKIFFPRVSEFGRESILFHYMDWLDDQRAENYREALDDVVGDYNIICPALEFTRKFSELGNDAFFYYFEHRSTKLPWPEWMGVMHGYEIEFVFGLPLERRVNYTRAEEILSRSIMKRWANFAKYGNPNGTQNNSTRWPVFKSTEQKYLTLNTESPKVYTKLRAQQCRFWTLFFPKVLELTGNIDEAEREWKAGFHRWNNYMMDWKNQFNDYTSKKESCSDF
Experimental: as §1, §2, §3, §4

BChE (Human) = target: T4, BChE (Human) (Homo sapiens, UniProt P06276); assay: BChE inhibition, Ellman's method; type: biochemical
T4 construct: purchased Sigma-Aldrich (Steinheim, Germany)
T4 sequence (P06276 29-602): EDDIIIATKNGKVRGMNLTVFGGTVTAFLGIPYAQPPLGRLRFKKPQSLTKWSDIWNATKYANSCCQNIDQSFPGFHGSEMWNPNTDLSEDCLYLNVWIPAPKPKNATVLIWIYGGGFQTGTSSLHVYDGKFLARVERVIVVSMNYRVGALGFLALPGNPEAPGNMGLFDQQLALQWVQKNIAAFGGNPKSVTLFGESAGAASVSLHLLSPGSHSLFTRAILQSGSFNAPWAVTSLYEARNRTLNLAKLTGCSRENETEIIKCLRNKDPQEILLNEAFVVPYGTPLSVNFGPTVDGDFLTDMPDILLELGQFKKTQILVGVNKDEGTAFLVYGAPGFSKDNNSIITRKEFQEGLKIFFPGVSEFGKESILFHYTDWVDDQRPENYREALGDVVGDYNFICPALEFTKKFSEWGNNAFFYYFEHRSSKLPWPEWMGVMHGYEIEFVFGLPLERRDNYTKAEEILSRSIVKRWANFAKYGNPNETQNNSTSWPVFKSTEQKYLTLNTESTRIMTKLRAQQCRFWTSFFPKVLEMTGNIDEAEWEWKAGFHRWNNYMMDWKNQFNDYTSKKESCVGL
Experimental: as §1, §2, §3, §4

[2] = tested on: murine fibroblast healthy cell line (NIH3T3); assay: MTT cell viability assay; type: cell-based; settings: 24 h, 0.000316 µM to 1000 µM, read-out: IC50 against NIH3T3
Experimental: (§5) The active compounds (4a, 4b, 4e, 4i, 4m, 4n, 4o, and 4t) were chosen to determine their cytotoxic activity toward a murine fibroblast healthy cell line (NIH3T3). After incubating the cells with active compounds at concentrations of 0.000316 µM to1000 µM for 24 h, the cell viability was measured using the 3-(4,5-dimethylthiazol-2-yl)-2,5-diphenyltetrazolium (MTT) assay. The inhibition percentage was calculated for each concentration of the test compounds. The IC50 values of the compounds were determined using a non-linear regression analysis over the calculated percentage inhibition values, and they are presented in Table 2. Accordingly, the cytotoxicity test proposed that the active derivatives were nontoxic against NIH3T3 cells at their active concentrations against BChE.
(§6) Healthy murine embryonic fibroblast cells (NIH3T3 cell line) were used for the cytotoxicity tests. The cell line and selected compounds were prepared for an MTT assay as reported previously. The optical densities (OD) of 96 well plates were recorded at 540 nm. […]

[3] = target: T5, human butyrylcholinesterase (BChE) (Homo sapiens, UniProt P06276); assay: Enzyme kinetics of BChE inhibition (Lineweaver-Burk plots); type: biochemical
T5 construct: purchased Sigma-Aldrich (Steinheim, Germany)
T5 sequence (P06276 29-602): as above
Text: To recognize the inhibition type, enzyme kinetics studies were applied using Lineweaver–Burk plots. […]. […] This pattern also indicates a mixed-type inhibition.
The calculation of the inhibition constant (Ki) is an effective tool for measuring the affinity of an enzyme for […], and it is easily determined using the secondary plots of the Lineweaver–Burk equation. […].
In the kinetics studies, the assay protocol specified for the inhibition assay was identical. […]. Measurements were performed one of two ways, in the presence and in the absence of the inhibitor. […]. After addition of BChE (20 μL/well), the mixture was incubated under the same conditions as the activity assay. Then, the reaction was initiated by the addition of Ellman’s reagent (DTNB; 20 µL/well, 10 mM) and the substrate (10 µL/well, 75 mM). The absorbance was measured for 10 min at 412 nm. The enzyme solution was processed as a control. All readings were adjusted with blank-reading. The results were analyzed as Lineweaver–Burk plots using Microsoft Office Excel 2013 [15].

MTT cell viability assay = type: cell-based, murine; settings: mouse, NIH3T3 murine embryonic fibroblast cells, 0.000316 µM to 1000 µM, read-out: IC50 against NIH3T3
Experimental: as §5, §6

[4] = read-out: AChE (Electrophorus electricus) inhibitory activity (%) ± SD
[5] = read-out: AChE (Human) inhibitory activity (%) ± SD
[6] = read-out: BChE (Human) inhibitory activity (%) ± SD

T1 sequence (O42275 24-633): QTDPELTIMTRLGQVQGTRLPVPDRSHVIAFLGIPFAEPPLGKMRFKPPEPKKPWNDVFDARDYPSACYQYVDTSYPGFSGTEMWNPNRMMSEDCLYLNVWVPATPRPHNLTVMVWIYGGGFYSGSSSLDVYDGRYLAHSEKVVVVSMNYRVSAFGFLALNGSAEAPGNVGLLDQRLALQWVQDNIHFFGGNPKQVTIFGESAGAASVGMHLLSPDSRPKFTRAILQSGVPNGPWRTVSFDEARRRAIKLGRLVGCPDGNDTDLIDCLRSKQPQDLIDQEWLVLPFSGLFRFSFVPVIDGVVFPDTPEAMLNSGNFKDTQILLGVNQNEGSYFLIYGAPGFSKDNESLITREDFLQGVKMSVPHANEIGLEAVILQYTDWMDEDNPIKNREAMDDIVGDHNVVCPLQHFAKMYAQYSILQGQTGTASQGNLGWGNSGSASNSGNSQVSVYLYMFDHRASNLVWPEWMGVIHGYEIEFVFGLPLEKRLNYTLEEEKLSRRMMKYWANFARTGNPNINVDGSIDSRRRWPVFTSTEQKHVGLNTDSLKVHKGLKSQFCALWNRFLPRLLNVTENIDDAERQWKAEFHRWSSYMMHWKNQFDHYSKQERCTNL

O=C(CSC(=S)N1CCN(C(c2ccccc2)c2ccccc2)CC1)Nc1c2ccccc2nc2ccccc12 [Compound 4m, 2-(9-Acridinylamino)-2-oxoethyl 4-benzhydrylpiperazine-1-carbodithioate]
AChE (Electrophorus electricus) inhibitory activity (%) ± SD ([1]; 10^-3 M): 71.23±2.15% | AChE (Electrophorus electricus) inhibitory activity (%) ± SD ([1]; 10^-4 M): 25.43 ± 1.21% | AChE (Human) inhibitory activity (%) ± SD (AChE (Human); 10^-3 M): 75.18±1.21% | AChE (Human) inhibitory activity (%) ± SD (AChE (Human); 10^-4 M): 27.38 ± 1.10% | IC50 (BChE (Equine)): 0.092 ± 0.001 µM | BChE (Equine) inhibitory activity (%) ± SD (BChE (Equine); 10^-3 M): 99.65±3.86% | BChE (Equine) inhibitory activity (%) ± SD (BChE (Equine); 10^-4 M): * 98.96 ± 3.47% | BChE (Equine) inhibitory activity (%) ± SD (BChE (Equine); 10^-5 M): 90.78±3.92% | BChE (Equine) inhibitory activity (%) ± SD (BChE (Equine); 10^-6 M): 80.30±2.56% | BChE (Equine) inhibitory activity (%) ± SD (BChE (Equine); 10^-7 M): 40.34±0.61% | BChE (Equine) inhibitory activity (%) ± SD (BChE (Equine); 10^-8 M): 30.24±0.70% | BChE (Equine) inhibitory activity (%) ± SD (BChE (Equine); 10^-9 M): 18.98±0.20% | BChE (Human) inhibitory activity (%) ± SD (BChE (Human); 10^-3 M): 98.18±2.71% | BChE (Human) inhibitory activity (%) ± SD (BChE (Human); 10^-4 M): * 97.50 ± 2.06% | BChE (Human) inhibitory activity (%) ± SD (BChE (Human); 10^-5 M): 92.54±2.45% | BChE (Human) inhibitory activity (%) ± SD (BChE (Human); 10^-6 M): 81.25±2.08% | BChE (Human) inhibitory activity (%) ± SD (BChE (Human); 10^-7 M): 44.61±0.79% | BChE (Human) inhibitory activity (%) ± SD (BChE (Human); 10^-8 M): 29.11±0.63% | BChE (Human) inhibitory activity (%) ± SD (BChE (Human); 10^-9 M): 17.00±0.33% | fold better BChE inhibition in comparison with donepezil (BChE (Human); ratio of IC50 values): 15.4 fold | IC50 (BChE (Human); read-out: BChE (Human) IC50): 0.093 ± 0.002 µM | IC50 [2]: 214 µM

O=C(CSC(=S)N1CCN(Cc2ccc(C(F)(F)F)cc2)CC1)Nc1c2ccccc2nc2ccccc12 [Compound 4n, 2-(9-Acridinylamino)-2-oxoethyl 4-(4-(trifluoromethyl)benzyl)piperazine-1-carbodithioate]
IC50 [1]: 45.9 ± 1.58 µM | inhibition at 0.001 µM [1, 4]: 6.91 ± 0.27% | inhibition at 0.01 µM [1, 4]: 8.43 ± 0.38% | inhibition at 0.1 µM [1, 4]: 11.3 ± 0.61% | inhibition at 1 µM [1, 4]: 14.6 ± 0.76% | inhibition at 10 µM [1, 4]: 22.4 ± 0.8% | inhibition at 100 µM [1, 4]: 63.2% | inhibition at 1000 µM [1, 4]: 81 ± 2.65% | IC50 (AChE (Human)): 41.1 ± 1.69 µM | inhibition at 0.001 µM (AChE (Human); [5]): 3 ± 0.12% | inhibition at 0.01 µM (AChE (Human); [5]): 5.51 ± 0.17% | inhibition at 0.1 µM (AChE (Human); [5]): 9.18 ± 0.22% | inhibition at 1 µM (AChE (Human); [5]): 10.5 ± 0.37% | inhibition at 10 µM (AChE (Human); [5]): 18.5 ± 0.54% | inhibition at 100 µM (AChE (Human); [5]): 68.4% | inhibition at 1000 µM (AChE (Human); [5]): 83.3 ± 1.78% | IC50 (BChE (Equine)): 0.015 ± 0.0006 µM | inhibition at 1000 µM (BChE (Equine); 10^-3 M, read-out: BChE (Equine) inhibitory activity (%) ± SD): 99.5 ± 2.97% | inhibition at 100 µM (BChE (Equine); 10^-4 M, read-out: BChE (Equine) inhibitory activity (%) ± SD): 99% | inhibition at 10 µM (BChE (Equine); 10^-5 M, read-out: BChE (Equine) inhibitory activity (%) ± SD): 92.5 ± 2.86% | inhibition at 1 µM (BChE (Equine); 10^-6 M, read-out: BChE (Equine) inhibitory activity (%) ± SD): 81.3 ± 1.25% | inhibition at 0.1 µM (BChE (Equine); 10^-7 M, read-out: BChE (Equine) inhibitory activity (%) ± SD): 49.3 ± 0.58% | inhibition at 0.01 µM (BChE (Equine); 10^-8 M, read-out: BChE (Equine) inhibitory activity (%) ± SD): 43.7 ± 1.11% | inhibition at 0.001 µM (BChE (Equine); 10^-9 M, read-out: BChE (Equine) inhibitory activity (%) ± SD): 39.25 ± 0.22% | IC50 (BChE (Human)): 0.014 ± 0.0005 µM | inhibition at 0.001 µM (BChE (Human); [6]): 37.2 ± 0.69% | inhibition at 0.01 µM (BChE (Human); [6]): 43.6 ± 0.84% | inhibition at 0.1 µM (BChE (Human); [6]): 50.5 ± 0.69% | inhibition at 1 µM (BChE (Human); [6]): 83.2 ± 1.07% | inhibition at 10 µM (BChE (Human); [6]): 93.7 ± 2.45% | inhibition at 100 µM (BChE (Human); [6]): 98.2% | inhibition at 1000 µM (BChE (Human); [6]): 99.3 ± 2.1% | inhibition type of BChE ([3]; Lineweaver-Burk plot, inhibitor at IC50/2, IC50, 2 x IC50): mixed inhibition | Ki ([3]; secondary plot of Lineweaver-Burk, substrate BTCI, read-out: steady-state inhibition constant (Ki) against BChE): 0.0175 µM | IC50 at 24 h (MTT cell viability assay): > 1000 µM

Cc1ccc(CN2CCN(C(=S)SCC(=O)Nc3c4ccccc4nc4ccccc34)CC2)cc1 [Compound 4o, 2-(9-Acridinylamino)-2-oxoethyl 4-(4-methylbenzyl)piperazine-1-carbodithioate]
AChE (Electrophorus electricus) inhibitory activity (%) ± SD ([1]; 10^-3 M): 94.97±3.61% | AChE (Electrophorus electricus) inhibitory activity (%) ± SD ([1]; 10^-4 M): 25.30 ± 1.01% | AChE (Human) inhibitory activity (%) ± SD (AChE (Human); 10^-3 M): 90.29±2.18% | AChE (Human) inhibitory activity (%) ± SD (AChE (Human); 10^-4 M): 30.45 ± 1.15% | IC50 (BChE (Equine)): 1.07 ± 0.051 µM | BChE (Equine) inhibitory activity (%) ± SD (BChE (Equine); 10^-3 M): 98.64±3.86% | BChE (Equine) inhibitory activity (%) ± SD (BChE (Equine); 10^-4 M): * 74.83 ± 2.17% | BChE (Equine) inhibitory activity (%) ± SD (BChE (Equine); 10^-5 M): 46.33±0.91% | BChE (Equine) inhibitory activity (%) ± SD (BChE (Equine); 10^-6 M): 42.99±0.97% | BChE (Equine) inhibitory activity (%) ± SD (BChE (Equine); 10^-7 M): 35.48±0.67% | BChE (Equine) inhibitory activity (%) ± SD (BChE (Equine); 10^-8 M): 25.36±0.49% | BChE (Equine) inhibitory activity (%) ± SD (BChE (Equine); 10^-9 M): 16.54±0.56% | BChE (Human) inhibitory activity (%) ± SD (BChE (Human); 10^-3 M): 99.25±2.63% | BChE (Human) inhibitory activity (%) ± SD (BChE (Human); 10^-4 M): * 75.25 ± 2.08% | BChE (Human) inhibitory activity (%) ± SD (BChE (Human); 10^-5 M): 48.19±1.12% | BChE (Human) inhibitory activity (%) ± SD (BChE (Human); 10^-6 M): 41.37±0.95% | BChE (Human) inhibitory activity (%) ± SD (BChE (Human); 10^-7 M): 37.90±0.71% | BChE (Human) inhibitory activity (%) ± SD (BChE (Human); 10^-8 M): 24.71±0.55% | BChE (Human) inhibitory activity (%) ± SD (BChE (Human); 10^-9 M): 20.80±0.48% | IC50 (BChE (Human); read-out: BChE (Human) IC50): 1.07 ± 0.039 µM | IC50 [2]: > 1000 µM

— article PMC6222329 (Molecules : A Journal of Synthetic Chemistry and Natural …, 2018)
